Data reported in US20200108034A1, “USE OF CITRULLINE AND GLUTATHIONE TO INCREASE MUSCLE MASS” (KYOWA HAKKO BIO CO., LTD., priority 2017, published 2020).

Assays:
Type in all cases: in vivo, human
[1] = Body composition (body mass, DEXA fat mass, bioimpedance total body water) at days 0, 29, 57; details: mean ± SEM, N = 25; for Fat Mass: DEXA; for Total Body Water: bioelectrical impedance
Protocol: (§1) Seventy-five resistance-trained (e.g., regular, resistance training thrice weekly for at least one year prior to the study) males between the ages of 18-35 and having a BMI between 18.5 and 30 kg/m^2 were divided into 3 groups of 25, wherein each group received one of the following supplements: (A) 2 g/day L-citrulline (CIT) and 200 mg/day glutathione (GSH), (B) 2 g/day L-citrulline malate only, or (C) 2.52 g/day of cellulose placebo. Participants were matched by total body mass and then randomly assigned a supplementation protocol in a double-blind fashion. Participants took their supplements one hour prior to their workout on exercise days. On non-exercise days, participants took their supplements in the morning with breakfast.
Body composition was measured at days 0, 29, and 57 during the study. Total body mass (kg) was determined on a standard dual beam balance scale (Detecto, Bridgeview, Ill.). Percent body fat, fat mass, and fat-free mass were determined using DEXA (Discovery Series W, commercially available from Hologic, Waltham, Mass.). Quality control calibration procedures were performed on a spine phantom (X-CALIBER Model DPA/QDR-1 anthropometric spine phantom, commercially available from Hologic, Waltham, Mass.) and a density step calibration phantom prior to each testing session. Total body water was determined with bioelectrical impedance spectroscopy (Tanita Inc., Arlington Heights, Ill.) using a low energy, high frequency current (500 micro amps at a frequency of 50 kHz).
Participants engaged in a supervised, periodized 4 day per week resistance-training program split into two upper and two lower extremity workouts per week for a total of 8 weeks. Prior to the workout, participants performed a standardized series of stretching exercises. The participants then performed an upper-body resistance-training program consisting of bench press, lat pull, shoulder press, seated row, shoulder shrugs, chest fly, biceps curl, triceps press down, and abdominal curls, twice per week, and a lower-body program consisting of leg press, back extension, step ups, leg curls, leg extension, heel raises, and abdominal crunches, also performed twice per week. Participants performed 3 sets of 10 repetitions with as much weight as they could lift per set (typically 70 to 80% of 1-RM). Rest periods between exercises and sets lasted no longer than 2 minutes.

[2] = Serum general clinical chemistry markers, day 0 and day 57; details: mean ± SEM, N = 25
Protocol: as §1
(§2) Venous blood samples were obtained from the antecubital vein using a standard VACUTAINER™ apparatus into one tube for serum separation and one for whole blood. The serum separation tubes were allowed to stand at room temperature for 15 minutes and then centrifuged for 10 minutes, and serum was removed and placed into a microfuge tube. Blood samples were obtained prior to the first dose of supplement and prior to beginning the resistance training program (day 0) and after eight weeks of supplementation and resistance training (day 57).
(§3) Serum samples were assayed for the following general clinical chemistry markers: glucose, total protein, blood urea nitrogen, creatinine, BUN/creatinine ratio, AST, ALT, albumin, globulin, total bilirubin, alkaline phosphatase. Whole blood samples were assayed for standard cell blood counts with percentage differentials, such as hemoglobin, red blood cell counts, white blood cell counts, neutrophils, lymphocytes, monocytes, eosinophils, and basophils.

[3] = Whole blood cell counts with differentials, day 0 and day 57; details: mean ± SEM; for Absolute basophils / Absolute eosinophils / Absolute lymphocytes / Absolute monocytes / Absolute neutrophils / Hb / Platelet / RBC / WBC: N = 25; for Red cell distribution width: N = 25, in % (unit assumed)
Protocol: as §1, §2, §3

[4] = Change in muscle mass after 8-week resistance training with supplementation
Protocol: as §1
Body composition was measured at days 0, 29, and 57 during the study. Total body mass (kg) was determined on a standard dual beam balance scale (Detecto, Bridgeview, Ill.). Percent body fat, fat mass, and fat-free mass were determined using DEXA (Discovery Series W, commercially available from Hologic, Waltham, Mass.). […] Total body water was determined with bioelectrical impedance spectroscopy (Tanita Inc., Arlington Heights, Ill.) using a low energy, high frequency current (500 micro amps at a frequency of 50 kHz). […]

NC(=O)NCCC[C@H](N)C(=O)O.O=C(O)CC(O)C(=O)O [CIT-malate, L-citrulline malate]
Fat Mass ([1]; Baseline): 11.2 ± 1.04 kg | Total Body Water ([1]; Baseline): 47.9 ± 1.14 kg | Body Mass ([1]; Baseline): 79.2 ± 2.50 kg | Fat Mass ([1]; supplementation week 4): 11.5 ± 0.92 kg | Total Body Water ([1]; supplementation week 4): 48.1 ± 1.16 kg | Body Mass ([1]; supplementation week 4): 79.5 ± 2.52 kg | Fat Mass ([1]; supplementation week 8): 11.9 ± 0.96 kg | Total Body Water ([1]; supplementation week 8): 48.4 ± 1.14 kg | Body Mass ([1]; supplementation week 8): 80.1 ± 2.42 kg | ALP ([2]; 8 weeks): 73.0 ± 4.5 IU/L | ALT ([2]; 8 weeks): 22.9 ± 1.8 IU/L | AST ([2]; 8 weeks): 21.3 ± 1.3 IU/L | Albumin ([2]; 8 weeks): 4.7 ± 0.05 g/dL | Albumin/Globulin ([2]; 8 weeks): 1.9 ± 0.06 | Bilirubin ([2]; 8 weeks): 0.6 ± 0.05 mg/dL | Creatinine ([2]; 8 weeks): 1.1 ± 0.04 mg/dL | Glucose ([2]; 8 weeks): 101.8 ± 3.9 mg/dL | Total protein ([2]; 8 weeks): 7.2 ± 0.1 g/dL | Urea nitrogen ([2]; 8 weeks): 16.9 ± 0.7 mg/dL | ALP ([2]; Baseline): 74.9 ± 4.5 IU/L | ALT ([2]; Baseline): 24.9 ± 2.4 IU/L | AST ([2]; Baseline): 23.8 ± 1.5 IU/L | Albumin ([2]; Baseline): 4.9 ± 0.05 g/dL | Albumin/Globulin ([2]; Baseline): 2.0 ± 0.07 | Bilirubin ([2]; Baseline): 0.7 ± 0.08 mg/dL | Creatinine ([2]; Baseline): 1.1 ± 0.03 mg/dL | Glucose ([2]; Baseline): 97.5 ± 3.4 mg/dL | Total protein ([2]; Baseline): 7.4 ± 0.1 g/dL | Urea nitrogen ([2]; Baseline): 16.8 ± 0.8 mg/dL | Absolute basophils ([3]; 8 weeks): 26.8 ± 3.2 µL⁻¹ | Absolute eosinophils ([3]; 8 weeks): 312.8 ± 79.5 µL⁻¹ | Absolute lymphocytes ([3]; 8 weeks): 1902.7 ± 85.5 µL⁻¹ | Absolute monocytes ([3]; 8 weeks): 370.5 ± 30.7 µL⁻¹ | Absolute neutrophils ([3]; 8 weeks): 3292.4 ± 318.9 µL⁻¹ | Hb ([3]; 8 weeks): 15.0 ± 0.1 g/dL | Platelet ([3]; 8 weeks): 212.4 ± 8.0 ×10^3/μL | RBC ([3]; 8 weeks): 5.1 ± 0.06 ×10^6/μL | WBC ([3]; 8 weeks): 5.7 ± 0.3 ×10^3/μL | Red cell distribution width ([3]; 8 weeks): 13.5 ± 0.4 | Absolute basophils ([3]; Baseline): 31.2 ± 3.3 µL⁻¹ | Absolute eosinophils ([3]; Baseline): 130.5 ± 16.6 µL⁻¹ | Absolute lymphocytes ([3]; Baseline): 2032.1 ± 131.4 µL⁻¹ | Absolute monocytes ([3]; Baseline): 371.8 ± 25.6 µL⁻¹ | Absolute neutrophils ([3]; Baseline): 3652.2 ± 306.1 µL⁻¹ | Hb ([3]; Baseline): 15.1 ± 0.2 g/dL | Platelet ([3]; Baseline): 218.2 ± 10.9 ×10^3/μL | RBC ([3]; Baseline): 5.1 ± 0.07 ×10^6/μL | WBC ([3]; Baseline): 6.2 ± 0.3 ×10^3/μL | Red cell distribution width ([3]; Baseline): 13.3 ± 0.1 | participants who displayed increases in muscle mass at both 4 and 8 weeks ([4]; FIG. 2, 25 per group): 36% | change in muscle mass ([4]; at 4 and 8 weeks, vs placebo, heavy resistance training, FIGS. 1A and 1B): increase in muscle mass compared to persons receiving only placebo
